{"source": "patent US20090081318A1", "about": "“TREATMENT OF NEUROADS USING INHIBITORS OF GLYCOGEN SYNTHASE KINASE (GSK)-3” (priority 2005, published 2009)", "key": {"GSK-3 [1]": {"test_system": "GSK-3", "details": "acting primarily through beta3-adrenoreceptors; similar extent as insulin; Moule et al. 1997; cited from earlier work"}, "GSK-3 [2]": {"test_system": "GSK-3", "details": "cited from earlier work"}, "CDK1": {"biological_target": "CDK1 (Homo sapiens, UniProt P06493)", "sequence (P06493 whole entry, species assumed)": "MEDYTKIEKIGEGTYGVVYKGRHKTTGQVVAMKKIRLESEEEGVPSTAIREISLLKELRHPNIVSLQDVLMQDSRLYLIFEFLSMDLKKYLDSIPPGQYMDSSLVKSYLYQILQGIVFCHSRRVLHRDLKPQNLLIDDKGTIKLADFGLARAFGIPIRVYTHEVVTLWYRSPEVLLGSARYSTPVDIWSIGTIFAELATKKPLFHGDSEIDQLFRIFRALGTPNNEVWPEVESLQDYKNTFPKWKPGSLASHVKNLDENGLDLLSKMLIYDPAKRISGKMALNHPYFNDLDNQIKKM", "sequence (P14635 whole entry partner, species assumed)": "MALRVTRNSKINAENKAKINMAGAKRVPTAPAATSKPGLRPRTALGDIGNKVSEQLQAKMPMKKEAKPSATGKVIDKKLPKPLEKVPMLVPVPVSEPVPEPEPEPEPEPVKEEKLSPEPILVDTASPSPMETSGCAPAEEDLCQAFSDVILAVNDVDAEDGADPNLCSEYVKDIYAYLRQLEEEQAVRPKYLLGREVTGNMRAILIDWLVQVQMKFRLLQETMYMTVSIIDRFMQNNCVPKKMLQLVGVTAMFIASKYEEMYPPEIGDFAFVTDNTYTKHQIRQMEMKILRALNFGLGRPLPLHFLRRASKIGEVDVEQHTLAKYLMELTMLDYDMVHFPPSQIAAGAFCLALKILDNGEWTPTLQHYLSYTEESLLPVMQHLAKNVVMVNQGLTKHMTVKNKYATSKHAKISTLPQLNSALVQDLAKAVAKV", "details": "cited from earlier work"}, "HIV": {"test_system": "HIV", "test": "Plasma HIV viral load", "format": "in vivo", "details": "individual subjects on VPA (three subjects; the first changed antiretroviral therapy); listed as VPA", "description": "(§1) Twenty-two eligible subjects, six without cognitive impairment and 16 with cognitive impairment, were enrolled and block-randomized within impairment strata to receive 250 mg of VPA or placebo twice daily. Cognitive impairment was defined as performance at least one standard deviation below the mean on two or more neuropsychological tests, or at least two standard deviations below the mean on one neuropsychological test, using normative data previously applied by the Dana cohort (Dana 1996). Subjects were evaluated at 2, 6, and 10 weeks for adverse clinical and laboratory experiences. Neuropsychological evaluations (see Table 3) were performed at screening, week 6, and week 10 along with global assessments of functioning (subject and investigator), the Fatigue Severity Scale, and the Center for Epidemiologic Studies Depression Scale. A neurological examination and CD4+/CD8+ counts were performed at screening and week 10, while plasma HIV viral load was measured at baseline and week 10."}, "[3]": {"parameters": "species or system human", "details": "in vivo", "description": "as §1\nTolerability was assessed based on the proportion of subjects able to complete the 10-week study at the original dose of study medication. Safety measures included the occurrences of adverse events and abnormal results on laboratory tests. […]"}, "[4]": {"test_system": "subjects with HIV-associated cognitive impairment", "test": "Neuropsychological evaluations, VPA adjunctive therapy trial", "format": "in vivo, human", "description": "as §1\n(§2) Tolerability was assessed based on the proportion of subjects able to complete the 10-week study at the original dose of study medication. Safety measures included the occurrences of adverse events and abnormal results on laboratory tests. Measures of efficacy included changes from baseline in: neuropsychological test scores; the Investigator Clinical Global Impression; MRI indices; functioning; and mood. The study was designed to provide approximately 80% power to detect a 45% difference in tolerability (i.e. 95% versus 50%) between the placebo and VPA groups using a one-sided Fisher's exact test at the 5% level of significance.\nChanges from baseline were assessed using paired t-tests. Comparisons between treatment arms were based on unequal-variance two-sample t-tests for continuous variables, and Fisher's Exact Tests for categorical variables. Comparisons between treatment arms were adjusted for baseline values using Analysis of Covariance. Primary statistical analyses were performed according to the intention-to-treat principle, using the last-observation-carried-forward imputation strategy for subjects who prematurely dropped out of the study. Secondary analyses excluded such subjects."}, "[5]": {"test_system": "subjects with HIV-associated cognitive impairment", "test": "Investigator Clinical Global Impression", "details": "human, in vivo", "description": "as §2"}, "[6]": {"details": "impaired participants, n = 9, VPA 250 mg twice daily"}, "[7]": {"details": "impaired participants, valproic acid minus placebo mean change to week 10, adjusted for baseline, negative = better on valproic acid"}, "[8]": {"details": "impaired participants, valproic acid minus placebo mean change to week 10, adjusted for baseline, positive = better on valproic acid"}}, "note": "pIC50, pKi: −log10 of the molar value. Values joined by “and” are separate entries in the source; they are usually repeats but may differ in a detail not shown here. Identical values can stand only once.", "data": [{"compound": "CC(C)NCC(O)c1ccc(O)c(O)c1", "note": "(centres unmarked) [Isoproterenol]", "values": [{"measurement": "Decrease of GSK-3 activity", "setting": "GSK-3 [1]", "result": "approximately 50%"}]}, {"compound": "[Be+2]", "note": "[Beryllium]", "values": [{"measurement": "pIC50", "setting": "GSK-3 [2]; read-out: Inhibition potency IC50", "result": 5.22}, {"measurement": "pIC50", "setting": "CDK1", "result": 4.30}]}, {"compound": "GRPRTTS*FAE [Pseudosubstrate peptide]", "values": [{"measurement": "pKi", "setting": "GSK-3 [2]; read-out: Inhibition potency Ki", "result": 3.15}]}, {"compound": "CCCC(CCC)C(=O)O", "note": "[Valproic Acid, Valproic acid]", "values": [{"measurement": "Change in plasma HIV RNA from baseline to week 10", "setting": "HIV", "result": "33,300 to 316 copies/ml and 100,000 to 93,900 copies/ml and 32,500 to 24,700 copies/ml"}, {"measurement": "Adverse experience", "setting": "[3]", "result": "mild new onset of acid reflux"}, {"measurement": "Increase in liver function tests", "setting": "[3]", "result": "< 2.5 times the upper limit of normal"}, {"measurement": "Composite Neuropsychological Z-score, mean change from baseline to week 10", "setting": "[4]; [6]", "result": 4.56}, {"measurement": "Digit Symbol, mean change from baseline to week 10", "setting": "[4]; [6]", "result": 6.56}, {"measurement": "Grooved Pegboard Dominant Hand, mean change from baseline to week 10", "setting": "[4]; [6]", "result": -9.33, "unit": "s"}, {"measurement": "Grooved Pegboard Nondominant Hand, mean change from baseline to week 10", "setting": "[4]; [6]", "result": -6.44, "unit": "s"}, {"measurement": "Mean Reaction Time Choice, mean change from baseline to week 10", "setting": "[4]; [6]", "result": -43.38, "unit": "ms"}, {"measurement": "Mean Reaction Time Sequential, mean change from baseline to week 10", "setting": "[4]; [6]", "result": -8.63, "unit": "ms"}, {"measurement": "Rey Auditory Verbal Memory Correct Recognition, mean change from baseline to week 10", "setting": "[4]; [6]", "result": 0.11}, {"measurement": "Rey Auditory Verbal Memory Delayed Recall, mean change from baseline to week 10", "setting": "[4]; [6]", "result": 1.11}, {"measurement": "Rey Auditory Verbal Memory Recall after Interference, mean change from baseline to week 10", "setting": "[4]; [6]", "result": "−0.22"}, {"measurement": "Rey Auditory Verbal Memory Trial 5, mean change from baseline to week 10", "setting": "[4]; [6]", "result": 0.78}, {"measurement": "Timed Gait, mean change from baseline to week 10", "setting": "[4]; [6]", "result": -0.65, "unit": "s"}, {"measurement": "Grooved Pegboard Dominant Hand, Treatment Effect", "setting": "[4]; [7]", "result": -10.56, "unit": "s"}, {"measurement": "Grooved Pegboard Nondominant Hand, Treatment Effect", "setting": "[4]; [7]", "result": -4.53, "unit": "s"}, {"measurement": "Mean Reaction Time Choice, Treatment Effect", "setting": "[4]; [7]", "result": 5.67, "unit": "ms"}, {"measurement": "Mean Reaction Time Sequential, Treatment Effect", "setting": "[4]; [7]", "result": 29.08, "unit": "ms"}, {"measurement": "Timed Gait, Treatment Effect", "setting": "[4]; [7]", "result": -0.25, "unit": "s"}, {"measurement": "Composite Neuropsychological Z-score, Treatment Effect", "setting": "[4]; [8]", "result": 2.31}, {"measurement": "Digit Symbol, Treatment Effect", "setting": "[4]; [8]", "result": 5.02}, {"measurement": "Rey Auditory Verbal Memory Correct Recognition, Treatment Effect", "setting": "[4]; [8]", "result": 1.16}, {"measurement": "Rey Auditory Verbal Memory Delayed Recall, Treatment Effect", "setting": "[4]; [8]", "result": 1.82}, {"measurement": "Rey Auditory Verbal Memory Recall after Interference, Treatment Effect", "setting": "[4]; [8]", "result": 1.57}, {"measurement": "Rey Auditory Verbal Memory Total, Treatment Effect", "setting": "[4]; [8]", "result": 2.22}, {"measurement": "Rey Auditory Verbal Memory Trial 5, Treatment Effect", "setting": "[4]; [8]", "result": "−0.38"}, {"measurement": "Between group differences on independent neuropsychological tests and composite z-score", "setting": "[4]; impaired subjects, VPA vs placebo", "result": "not statistically significant"}, {"measurement": "Investigator clinical global impression, placebo vs VPA group", "setting": "[5]", "result": "No significant difference"}]}]}
